The record followed here is ChEMBL document CHEMBL3808320, “1,4-Diphenalkylpiperidines: A new scaffold for the design of potent inhibitors of the vesicular monoamine transporter-2” (Bioorg Med Chem Lett, 2016).

In general, Ki refers to a dissociation constant, usually derived from enzyme kinetics or from competition with a known ligand. Read a low Ki as higher affinity.

The structures appear in SMILES notation.

In experiment [1] the target is Synaptic vesicular amine transporter (Rattus norvegicus) (UniProt Q01827). Kind of experiment: Potency index, ratio of lobelane Ki to compound Ki for VMAT2 in rat striata vesicles homogenate.
Chain of Synaptic vesicular amine transporter (Rattus norvegicus) (Q01827 whole entry): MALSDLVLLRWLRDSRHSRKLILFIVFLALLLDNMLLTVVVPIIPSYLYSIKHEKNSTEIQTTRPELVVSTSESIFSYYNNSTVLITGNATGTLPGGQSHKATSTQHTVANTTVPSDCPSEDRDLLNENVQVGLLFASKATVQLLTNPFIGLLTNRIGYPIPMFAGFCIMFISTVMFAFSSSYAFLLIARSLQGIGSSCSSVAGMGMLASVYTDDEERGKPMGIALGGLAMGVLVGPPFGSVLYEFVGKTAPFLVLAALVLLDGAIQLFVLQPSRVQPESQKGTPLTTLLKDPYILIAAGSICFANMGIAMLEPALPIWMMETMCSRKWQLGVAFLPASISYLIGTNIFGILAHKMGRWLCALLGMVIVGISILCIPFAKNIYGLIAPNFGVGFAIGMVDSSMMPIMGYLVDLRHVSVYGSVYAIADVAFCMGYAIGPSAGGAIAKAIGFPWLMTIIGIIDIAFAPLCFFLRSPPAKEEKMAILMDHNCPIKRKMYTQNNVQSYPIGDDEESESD
For experiment [2] the target is unchanged. In words: Potency index, ratio of lobelane Ki to compound Ki for VMAT2 in rat whole brain vesicles homogenate.
The target in experiment [3] is T1, Synaptic vesicular amine transporter (Rattus norvegicus, UniProt Q01827). In words: Displacement of [3H]DTBZ from VMAT2 in rat whole brain vesicles homogenate after 30 mins by liquid scintillation counting. The experiment is classed as tissue-based. On the technique in general: Loss of bound radioactivity is the signal in a displacement assay; it reports binding, not function.
T1 sequence (Q01827 whole entry): as above

The target of experiment [4] is T1, Synaptic vesicular amine transporter. In words: Inhibition of [3H]DA uptake at VMAT2 in rat striata vesicles homogenate after 8 mins by liquid scintillation counting.

Turning to `COc1ccccc1CCC1CCN(CCc2ccc(F)cc2)CC1`, the Ratio Ki in experiment [1] was found to be 4.
As to `COc1cccc(CCN2CCC(CCc3ccccc3OC)CC2)c1`, the Ratio Ki in experiment [1] was determined as 4; in experiment [2], 5.
Molecule `COc1ccccc1CCN1CCC(CCc2ccccc2)CC1` returned a Ki in experiment [3] of 260 nM.
Same read-out and setting: to `COc1ccc(CCC2CCN(CCc3ccc(OC)cc3)CC2)cc1` belongs 2500 nM.
Still for that read-out and setting: the same measure for `COc1cccc(CCN2CCC(Cc3ccccc3)CC2)c1`: 1500 nM.
In the case of `COc1ccccc1CCC1CCN(CCc2ccccc2OC)CC1`, the figures for the Ratio Ki in experiment [1] and in experiment [2] were 4 and 5, respectively.
On to `c1ccc(CCC2CCN(CCc3ccccc3)CC2)cc1`, for which the Ki in experiment [4] was 120 nM.
The molecule `COc1ccccc1CCN1CCC(Cc2ccccc2)CC1` gave a Ki in experiment [3] of 2800 nM.
The same measure, in the same setting: the same measure for `COc1cccc(CCN2CCC(CCc3ccccc3)CC2)c1`: 270 nM; for `COc1ccc(CCN2CCC(Cc3ccccc3)CC2)cc1`: 1900 nM.
